Values quoted from earlier work as cited in patent US20230233180A1, “Emergency Ultrasound Gel” (priority 2022, published 2023).
In brackets after ≈: the same amount, converted by molar mass. Where two headings read alike, the source gives them in different places.

Assays:
[1] = tested on: wide variety of yeast and fungi
wide range of bacteria = conditions: bactericidal

Compound	MIC (Candida albicans; Canddia albicans M9)	MIC (Candida albicans; Candida albicans 10231)	MIC (Candida albicans; Candida albicans H33)	MIC (Candida albicans; Candida albicans H37)	MIC (Candida albicans; Candida albicans H38)	MIC (Candida albicans; Candida albicans M28)	MIC (Candida albicans; Candida albicans M36)	MIC (Candida albicans; Candida albicans SCO)	MIC (Candida albicans; Candida albicans Ser5)	MIC (Candida albicans; Candida. albicans H65)	antifungal effect [1]	concentration that kills a wide range of bacteria (wide range of bacteria)
CCCCN1CCCCC1C(=O)Nc1c(C)cccc1C (stereo not shown) [Bupivacaine]	1300 µg/mL (≈ 4.51 mM)	2500 µg/mL (≈ 8.67 mM)	2500 µg/mL (≈ 8.67 mM)	5000 µg/mL (≈ 17.3 mM)	2500 µg/mL (≈ 8.67 mM)	1300 µg/mL (≈ 4.51 mM)	2500 µg/mL (≈ 8.67 mM)	1300 µg/mL (≈ 4.51 mM)	2500 µg/mL (≈ 8.67 mM)	1300 µg/mL (≈ 4.51 mM)		
O=C([O-])CNCO.[Na+] [Sodium hydroxymethylglycinate]											does not have strong antifungal effect	0.09%
CCN(CC)CC(=O)Nc1c(C)cccc1C [Lidocaine]	2500 µg/mL (≈ 10.7 mM)	5000 µg/mL (≈ 21.3 mM)	5000 µg/mL (≈ 21.3 mM)	10000 µg/mL (≈ 42.7 mM)	5000 µg/mL (≈ 21.3 mM)	2500 µg/mL (≈ 10.7 mM)	5000 µg/mL (≈ 21.3 mM)	2500 µg/mL (≈ 10.7 mM)	5000 µg/mL (≈ 21.3 mM)	2500 µg/mL (≈ 10.7 mM)		
